Results reported in PubChem BioAssay AID365 (MTDP, 2006).
The source made the active and inactive calls. How the calls were made is not given here.

Target: Ribonuclease HI (Escherichia coli (strain K12)) (UniProt P0A7Y4)
Experiment: E. coli RNase HI inhibitors, dose response, biochemical, FRET RNA/DNA duplex cleavage (AID 365)
Conditions: E. coli RNase H, FRET RNA/DNA cleavage fluorescence

Ribonuclease HI (Escherichia coli (strain K12)), sequence (P0A7Y4 whole entry, looked up): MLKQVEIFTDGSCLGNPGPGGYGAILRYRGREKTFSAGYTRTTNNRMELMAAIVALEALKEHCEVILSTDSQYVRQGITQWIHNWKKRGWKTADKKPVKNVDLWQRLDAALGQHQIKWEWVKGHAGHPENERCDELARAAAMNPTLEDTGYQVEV

IC50	Compound
inactive	C[C@]12CC[C@H]3[C@@H](CCC4=CC(=O)CC[C@@]43C)[C@@H]1CC[C@@H]2C(=O)COS(=O)(=O)c1ccc(Br)cc1
> 100 µM (inactive)	CC1=C(CCC(=O)O)c2cc3nc(cc4[nH]c(cc5[nH]c(cc1n2)c(C)c5C(C)O)c(C)c4C(C)O)C(C)=C3CCC(=O)O (centres undefined)
9 µM	CCC(=O)Nc1sc2c(c1C(=O)Nc1ccc(OC)cc1)CCCCC2
inactive	CCOc1ccc(C2=CC(=O)C=CC2=O)cc1
2.4 µM	CCOc1ccc(N2C(=O)/C(=C/c3ccc(I)o3)C(=O)NC2=S)cc1
2 µM	NC(=O)c1c(NC(=O)COc2ccccc2)sc2c1CCCCC2
5.2 µM	CC1=c2c(oc3cc(O)c(Nc4c(C)cc(O)cc4O)c(C)c23)=CC(=O)C1=Nc1c(C)cc(O)cc1O
2.2 µM	Cc1ccc(C(=O)Nc2sc(C)c(C)c2C(N)=O)cc1

Compound	IC50
O=C1C=CC(=O)C(c2cc(Cl)ccc2Cl)=C1	9.2 µM
